Measurements as given in article PMC8887546, “Design and Synthesis of Brain Penetrant Glycopeptide Analogues of PACAP With Neuroprotective Potential for Traumatic Brain Injury and Parkinsonism” (Frontiers in drug discovery, 2022).

Legend:
[1] = test system: Sprague Dawley rats, 6-OHDA lesion; experiment: Unbiased stereology of TH-positive neurons in SNc (study 2); assay type: in vivo, rat; details: more severe (40%) lesion
Method: Rats were treated with 2LS98Lac or saline (vehicle) as outlined in the Schemes in Figures 9A,B via intraperitoneal (i.p.) injection (15 mg/kg). All animals were made hemi-parkinsonian with unilateral, striatal 6-hydroxydopamine (Sigma Aldrich, St. Louis, MO) injections. After surgery, behavioral assessments were done at 2- and 4-weeks post-surgery. 24 h after the last test animals were either euthanized and whole brains were harvested for future biochemical analysis or perfused and brains collected for immunohistochemistry and stereological assessment of tyrosine hydroxylase-positive (TH+) cells remaining in the SNc. In study 1: n = 16 each group were included, and all underwent the behavioral analysis: n = 16, and for the stereology in the SNc, n = 8 each group was used. In study 2: n = 23 each group were included. […]
Stereological probes were applied using a Zeiss Imager M2 microscope (Carl Zeiss, Jena, Germany) equipped with StereoInvestigator software (MBF Bioscience, VT, United States) according to previously published methods ([Corenblum et al., 2015]; [Anandhan et al., 2021]). Using the optical fractionator probe, cells were counted under the ×63 oil immersion objective by a blinded observer. TH+ cells were counted in sections 480 μm apart using a grid size of 170 × 100 μm and counting frame size of 75 × 75 μm. […]

[2] = test system: C57BL/6 mice, diffuse TBI; experiment: Sleep-wake parameters (piezoelectric sleep cage) after TBI; assay type: in vivo, mouse; details: 10 mg/kg i.p. 30 min prior to TBI
Method: 30 min prior to TBI or sham injury, mice were randomly assigned to a therapeutic group and received an intraperitoneal injection of 2LS80Mel (10 mg/kg) or sterile saline (0.25 ml). Groups were as follows: TBI-2LS80Mel n = 17; TBI-vehicle n = 17; sham n = 22 (vehicle n = 11, 2LS80Mel n = 11).
Mice (19–24 g) were subjected to midline fluid percussion injury (mFPI) consistent with methods previously described ([Lifshitz, 2009]; [Harrison et al., 2014]; [Rowe et al., 2014a]; [Rowe et al., 2014b]; [Rowe et al., 2014c]). Mice were anesthetized using 5% isoflurane in 100% oxygen for 5 min and the head of the mouse was placed in a stereotaxic frame with continuously delivered isoflurane at 2.5% via nosecone. […] The injury hub was closed using a Luer-Loc cap and mice were placed in a heated recovery cage and monitored until they were ambulatory before being returned to their respective sleep cages.
For injury induction 24 h post-surgery, mice were re-anesthetized with 5% isoflurane delivered for 3 min. […] Injured mice were monitored for presence of a forearm fencing response and righting reflex times were recorded as indicators of injury severity ([Hosseini and Lifshitz, 2009]). […] After spontaneously righting, mice were placed in a heated recovery cage and monitored until they were ambulatory (approximately 5–15 min) before being returned to their piezoelectric sleep cage (see below). […]

Row | Compound | Mean increase of nigral TH cells on the lesioned side vs vehicle ([1]; not significant (p = 0.2208)) | Nigral TH-cell count on the lesioned side ([1]; three injections 15 mg/kg i.p., mean, vehicle 8,391) | Cumulative minutes slept in the first 6 h post-injury [2] | Sleep in the first dark period [2]
1 | [2H]C([2H])([2H])C([2H])(C([2H])([2H])[2H])[C@]([2H])(NC(=O)[C@H](C)NC(=O)[C@H](C)NC(=O)[C@H](CC(C)C)NC(=O)[C@H](Cc1ccc(O)cc1)NC(=O)[C@H](CCCCN)NC(=O)[C@H](CCCCN)NC(=O)[C@@]([2H])(NC(=O)[C@H](C)NC(=O)[C@H](CC(C)C)NC(=O)[C@H](CCC(N)=O)NC(=O)[C@H](CCCCN)NC(=O)[C@H](CCCNC(=N)N)NC(=O)[C@H](Cc1ccc(O)cc1)NC(=O)[C@H](CCCNC(=N)N)NC(=O)[C@H](CO)NC(=O)[C@H](Cc1ccc(O)cc1)NC(=O)[C@H](CO)NC(=O)[C@H](CC(=O)O)NC(=O)[C@@H](NC(=O)[C@H](Cc1ccccc1)NC(=O)[C@@H](NC(=O)CNC(=O)[C@H](CC(=O)O)NC(=O)[C@H](CO)NC(=O)[C@@H](N)Cc1c[nH]cn1)[C@@H](C)CC)[C@@H](C)O)C([2H])(C([2H])([2H])[2H])C([2H])([2H])[2H])C(=O)N[C@@H](CC(C)C)C(=O)N[C@@H](CO[C@@H]1O[C@H](CO)[C@@H](O[C@@H]2O[C@H](CO)[C@H](O)[C@H](O)[C@H]2O)[C@H](O)[C@H]1O)C(N)=O [Compound 2LS98Lac] | 850 cells | 9,244 cells |  | 
2 | CC[C@H](C)[C@H](NC(=O)CNC(=O)[C@H](CC(=O)O)NC(=O)[C@H](CO)NC(=O)[C@@H](N)Cc1c[nH]cn1)C(=O)N[C@@H](Cc1ccccc1)C(=O)N[C@H](C(=O)N[C@@H](CC(=O)O)C(=O)N[C@@H](CO)C(=O)N[C@@H](Cc1ccc(O)cc1)C(=O)N[C@@H](CO)C(=O)N[C@@H](CCCNC(=N)N)C(=O)N[C@@H](Cc1ccc(O)cc1)C(=O)N[C@@H](CCCNC(=N)N)C(=O)N[C@@H](CCCCN)C(=O)N[C@@H](CCC(N)=O)C(=O)N[C@@H](CC(C)C)C(=O)N[C@@H](C)C(=O)N[C@H](C(=O)N[C@@H](CCCCN)C(=O)N[C@@H](CCCCN)C(=O)N[C@@H](Cc1ccc(O)cc1)C(=O)N[C@@H](CC(C)C)C(=O)N[C@@H](C)C(=O)N[C@@H](C)C(=O)N[C@H](C(=O)N[C@@H](CC(C)C)C(=O)N[C@@H](CO[C@@H]1O[C@H](CO[C@H]2O[C@H](CO)[C@H](O)[C@H](O)[C@H]2O)[C@@H](O)[C@H](O)[C@H]1O)C(N)=O)C(C)C)C(C)C)[C@@H](C)O [Compound 2LS80Mel] |  |  | slept comparable minutes to uninjured sham animals | prevented this injury-induced increase in sleep
